Our source for the outcome values is PubChem BioAssay AID1205 (EPA DSSTox, 2008).

This series is described as follows: DSSTox (CPDBAS) Carcinogenic Potency Database Summary MultiCellCall Results. Conditions: animal carcinogenicity bioassays, multi-cell call summary. In outline:
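Summary call drawn from chronic long-term cancer bioassays in rats, mice, hamsters, dogs and nonhuman primates, using the most positive result per sex-species. Score: multispecies=50, multisex=30, multisite=20, summed for combinations.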

Active and inactive are the calls of the source.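 How the source made its calls: active means tumour findings in long-term animal cancer tests in more than one sex, species or organ; inactive means no tumour finding and more than one negative test.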 Where a SMILES comes first, the peptide text is derived from it.

As for `COc1cc(NC(=O)C(N=Nc2ccc(-c3ccc(N=NC(C(C)=O)C(=O)Nc4cc(OC)c(Cl)cc4OC)c(Cl)c3)cc2Cl)C(C)=O)c(OC)cc1Cl` (configuration not stated), the outcome was “inactive; multispecies inactive”.
Turning to `CCOC(=O)C1OC1(C)c1ccccc1` (configuration not stated), the outcome was “inactive; multisex inactive”.
For `CN1C(C(=O)Nc2ccccn2)=C(O)c2sc(Cl)cc2S1(=O)=O`, the outcome was “inactive; multisex inactive”.
In the case of `Nc1c(Cl)c(Cl)nc(C(=O)O)c1Cl`, the outcome is “inactive; multisex inactive; multispecies inactive”.
With `O=c1c(CO)c/c(=N/Nc2ccc(S(=O)(=O)O)c3ccccc23)c(=O)/c1=N/Nc1ccc(S(=O)(=O)O)c2ccccc12`, the outcome is “inactive; multisex inactive”.
For the molecule `O=C1C(c2[nH]c3ccc(S(=O)(=O)O)cc3c2O)=Nc2ccc(S(=O)(=O)O)cc21`, the outcome was “inactive; multisex inactive; multispecies inactive”.
The value for `O.O.O.O.O.O.O.O.O=S(=O)([O-])[O-].O=S(=O)([O-])[O-].O=S(=O)([O-])[O-].[Cd+2].[Cd+2].[Cd+2]` was “inactive; multispecies inactive”; that for `C=O` was “active; multisite active; multisex active; multispecies active”; that for `COC(=O)[C@H](Cc1ccccc1)NC(=O)[C@@H](N)CC(=O)O` (H-Asp-Phe-OMe) was “inactive; multisex inactive”.
As for `CCCCCCN(N=O)C(N)=O`, the outcome is “active; multisite active; multisex active”.
Take `NC(=O)c1cnccn1`: the outcome is “inactive; multisex inactive; multispecies inactive”.
For `C/C=C/c1ccc(OC)cc1`, the outcome was “inactive; multisex inactive”.
In the case of `Clc1ccc(-c2cccc(Cl)c2Cl)c(Cl)c1` it was “active; multisite active; multisex active”; in that of `Nc1ccc([N+](=O)[O-])cc1`, “inactive; multisex inactive; multispecies inactive”.
The value for `Cc1ncc([N+](=O)[O-])n1CCO` was “active; multisite active; multisex active; multispecies active”.
In the case of `O=C(O)c1ccncc1` it was “inactive; multisex inactive; multispecies inactive”; in that of `CC(N)=S`, “active; multisex active; multispecies active”.
With `CC(=O)OC/C=C(C)/C=C/C=C(C)/C=C/C1=C(C)CCCC1(C)C`, the outcome is “active; multisex active”.
In the case of `OCc1ccccc1` it was “inactive; multisex inactive; multispecies inactive”; in that of `Cc1c(-c2cnccn2)ssc1=S`, “inactive; multisex inactive”; in that of `CC(C)(C)c1cc(O)ccc1O`, “inactive; multisex inactive”.
In the case of `CC(O)CN(C)c1ccc(NN)nn1` (configuration not stated) it was “inactive; multisex inactive”.
In the case of `C[C@]12CCC(=O)C=C1CC[C@@H]1[C@@H]2[C@@H](O)C[C@@]2(C)[C@H]1CC[C@]2(O)C(=O)CO` it was “inactive; multisex inactive”; in that of `O=C1c2ccccc2C(=O)c2ccccc21`, “inactive; multisex inactive”.
With `Cc1cc2c(nc1N)[nH]c1ccccc12`, the outcome was “active; multisite active; multisex active; multispecies active”.
The value for `O=C1C=CC(=O)C=C1` was “active; multisex active”.
`FC(F)(Cl)Cl`: the outcome is “inactive; multisex inactive; multispecies inactive”.
Consider `Cc1ccc(S(=O)(=O)Oc2ccc(N=Nc3ccc(-c4ccc(N=Nc5c(O)ccc6cc(S(=O)(=O)O)cc(S(=O)(=O)O)c56)c(C)c4)cc3C)cc2)cc1`, for which the outcome was “active; multisite active; multisex active”.
The value for `NCCNc1cccc2ccccc12` was “inactive; multisex inactive; multispecies inactive”; that for `CN(Cc1cnc2nc(N)nc(N)c2n1)c1ccc(C(=O)N[C@@H](CCC(=O)O)C(=O)O)cc1` was “inactive; multisex inactive; multispecies inactive”; that for `CC(C)CCC[C@@H](C)[C@H]1CC[C@H]2[C@@H]3CC=C4C[C@@H](OC(=O)Cc5ccc(N(CCCl)CCCl)cc5)CC[C@]4(C)[C@H]3CC[C@]12C` was “active; multisite active; multisex active; multispecies active”.
The value for `Clc1ccc(-c2ccc(Cl)c(Cl)c2Cl)c(Cl)c1Cl` was “active; multisite active; multisex active”.
The value for `COP(=S)(OC)Oc1ccc([N+](=O)[O-])cc1` was “inactive; multisex inactive; multispecies inactive”; that for `C#C[C@]1(O)CC[C@H]2[C@@H]3CCC4=C(CCC(=O)C4)[C@H]3CC[C@@]21C` was “inactive; multisex inactive”; that for `O=NN1CCN(N=O)CC1` was “active; multisex active”.
`OCc1ccco1`: the outcome was “active; multisite active; multispecies active”.
In the case of `CC(C)(c1ccc(O)cc1)c1ccc(O)cc1` it was “inactive; multisex inactive; multispecies inactive”; in that of `O=C(CCl)c1ccccc1`, “inactive; multisex inactive; multispecies inactive”.
In the case of `C[C@]12CC[C@H](O)CC1=CC[C@@H]1[C@@H]2CC[C@]2(C)C(=O)CC[C@@H]12` it was “active; multisex active”; in that of `CC(C)=CCC/C(C)=C/C=O`, “inactive; multisex inactive; multispecies inactive”.
The value for `O=C(O)C(Cl)(Cl)Cl` was “active; multisex active”; that for `Nc1cc([N+](=O)[O-])ccc1C(=O)O` was “inactive; multisex inactive; multispecies inactive”; that for `Cc1cc(=O)n(-c2ccccc2)n1C` was “active; multisite active”.
Consider `Cc1cc(Cl)ccc1N`, for which the outcome was “active; multisex active”.
In the case of `CN(C)[C@@H]1C(=O)C(C(N)=O)=C(O)[C@@]2(O)C(=O)C3=C(O)c4c(O)cccc4[C@@](C)(O)[C@H]3[C@H](O)[C@@H]12` it was “inactive; multisex inactive; multispecies inactive”.
The value for `CN(C)C(=S)S[Se](SC(=S)N(C)C)(SC(=S)N(C)C)SC(=S)N(C)C` was “inactive; multisex inactive”; that for `OC[C@H]1O[C@@](CO)(O[C@H]2O[C@H](CO)[C@@H](O)[C@H](O)[C@H]2O)[C@@H](O)[C@@H]1O` was “inactive; multisex inactive”.
In the case of `Nc1nc(N)nc(-c2ccccc2)n1` it was “inactive; multisex inactive; multispecies inactive”; in that of `COc1ccc(O)cc1`, “active; multisex active”.
Turning to `O=C(O)c1nn(Cc2ccc(Cl)cc2Cl)c2ccccc12`, the outcome was “inactive; multisex inactive”.
For the molecule `O=CNNC=O`, the outcome was “active; multisex active”.
The value for `CC(COc1ccc(C(C)(C)C)cc1)OS(=O)OCCCl` (configuration not stated) was “active; multispecies active”; that for `CC(=O)[O][Hg][c]1ccccc1` was “inactive; multisex inactive”; that for `C=C(C)[C@H]1Cc2c(ccc3c2O[C@@H]2COc4cc(OC)c(OC)cc4[C@@H]2C3=O)O1` was “inactive; multisex inactive; multispecies inactive”.
In the case of `CC(C)=CCl` it was “active; multisite active; multisex active; multispecies active”; in that of `O=[N+]([O-])OCC(CO[N+](=O)[O-])O[N+](=O)[O-]`, “active; multisite active; multisex active”.
In the case of `CC(C)NCC(O)c1ccc(NS(C)(=O)=O)cc1` (configuration not stated) it was “inactive; multisex inactive; multispecies inactive”; in that of `N[C@@H](CCC(=O)O)C(=O)O`, “inactive; multisex inactive; multispecies inactive”.
Turning to `CC(C)OC(=O)Nc1cccc(Cl)c1`, the outcome is “inactive; multisex inactive; multispecies inactive”.
The value for `CCC1(c2ccccc2)C(=O)NCNC1=O` was “active; multisite active; multisex active”; that for `O=C1O[C@@H](CN2CCOCC2)CN1/N=C/c1ccc([N+](=O)[O-])o1` was “active; multisite active”; that for `N=c1ccn2c(n1)O[C@H]1[C@H](O)[C@@H](CO)O[C@H]12` was “inactive; multisex inactive”.
The value for `CC1CCC(C(C)C)C(O)C1` (configuration not stated) was “inactive; multisex inactive; multispecies inactive”; that for `CC(=O)Nc1ccc(C(=O)CCl)cc1` was “inactive; multisex inactive; multispecies inactive”.
Consider `CS(=O)(=O)OCCCNCCCOS(C)(=O)=O`, for which the outcome is “inactive; multisex inactive; multispecies inactive”.
With `CN=C(NC#N)NCCSCc1nc[nH]c1C`, the outcome is “inactive; multisex inactive; multispecies inactive”.
In the case of `C=C(F)F` it was “inactive; multisex inactive”; in that of `CC(C)COC(=O)c1ccc(O)cc1`, “inactive; multisex inactive”.
The value for `C=CBr` was “active; multisite active; multisex active”.
The value for `CCC(=O)C(CC(C)N(C)C)(c1ccccc1)c1ccccc1` (configuration not stated) was “inactive; multisex inactive; multispecies inactive”.
Turning to `S=C(SN1CCOCC1)N1CCOCC1`, the outcome was “active; multisite active; multisex active”.
With `CC(=O)N(O)c1ccc2c(c1)Cc1ccccc1-2`, the outcome was “active; multisite active; multisex active; multispecies active”.
In the case of `Oc1c(Cl)cc(Cl)c(Cl)c1Cc1c(O)c(Cl)cc(Cl)c1Cl` it was “inactive; multisex inactive; multispecies inactive”; in that of `CCN(CC)CC#CC(C)(C)OC(=O)C(O)(c1ccccc1)C1CCCCC1` (configuration not stated), “inactive; multisex inactive; multispecies inactive”.
In the case of `OB(O)O` it was “inactive; multisex inactive”; in that of `COS(C)(=O)=O`, “active; multisite active”; in that of `O=C1C2CC=CCC2C(=O)N1SC(Cl)(Cl)Cl` (configuration not stated), “active; multisite active; multisex active; multispecies active”.
The value for `CCCN=[N+]([O-])CCC` was “active; multisite active”.
Consider `NC(=O)N(CCO)N=O`, for which the outcome is “active; multisite active; multisex active; multispecies active”.
The value for `CC(C)C(C(=O)OC(C#N)c1cccc(Oc2ccccc2)c1)c1ccc(Cl)cc1` (configuration not stated) was “inactive; multisex inactive; multispecies inactive”; that for `ClCCl` was “active; multisite active; multisex active; multispecies active”; that for `COP(=S)(OC)SCn1nnc2ccccc2c1=O` was “inactive; multisex inactive; multispecies inactive”.
